Experiments:
[1] = tested on: A549; experiment: Cell-based assay, anti-proliferative activity (Cell Counting Kit-8, 72 hours); conditions: Homo sapiens; A549 cells, Cell Counting Kit-8, 72 hours; read-out: IC50 (μM) A549
How it was run: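 IC50 values come from growth read-outs taken after the cells' exposure to each candidate inhibitor. Cells had been plated in 96-well microtiter plates beforehand.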

[2] = molecular target: SUV39H2 (Homo sapiens (Human), UniProt Q9H5I1); conditions: read-out: IC50 (μM) Suv 39H2 assay; enzyme assay
SUV39H2, sequence (Q9H5I1 whole entry): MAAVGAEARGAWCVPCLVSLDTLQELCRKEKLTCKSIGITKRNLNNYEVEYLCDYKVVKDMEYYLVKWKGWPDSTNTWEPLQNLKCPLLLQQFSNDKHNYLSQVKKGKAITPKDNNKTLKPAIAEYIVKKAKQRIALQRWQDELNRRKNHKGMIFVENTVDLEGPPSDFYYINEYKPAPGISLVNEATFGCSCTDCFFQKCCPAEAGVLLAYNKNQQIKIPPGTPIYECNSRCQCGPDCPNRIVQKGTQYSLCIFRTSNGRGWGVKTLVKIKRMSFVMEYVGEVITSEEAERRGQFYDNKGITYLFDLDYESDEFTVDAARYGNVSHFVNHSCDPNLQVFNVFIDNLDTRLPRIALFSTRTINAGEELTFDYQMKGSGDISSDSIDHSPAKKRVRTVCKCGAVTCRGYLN

[3] = tested on: PC14; experiment: Cell-based assay, anti-proliferative activity (Cell Counting Kit-8, 72 hours); conditions: Homo sapiens, PC-14; PC14 cells, Cell Counting Kit-8, 72 hours; read-out: IC50 (μM) PC14
How it was run: (§1)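 Cells seeded at 2,000–3,000 per well and exposed 72 h to compound at 0–100 micro-M (2-fold series). Growth measured with CCK-8; IC50 taken as anti-proliferative indicator.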

[4] = tested on: CCD-18Co; experiment: as above; conditions: Homo sapiens; CCD-18Co cells, Cell Counting Kit-8, 72 hours; read-out: IC50 (μM) CCD-18Co
How it was run: as §1

[5] = tested on: HFL1; experiment: as above; conditions: Homo sapiens; HFL1 cells, Cell Counting Kit-8, 72 hours; read-out: IC50 (μM) HFL1
How it was run: as §1

[6] = tested on: HCT-116; experiment: as above; conditions: Homo sapiens; HCT-116 cells, Cell Counting Kit-8, 72 hours; read-out: IC50 (μM) HCT-116
How it was run: as §1

| Structure (SMILES) | IC50 [1] | IC50 [2] | IC50 [3] | IC50 [4] | IC50 [5] | IC50 [6] |
| --- | --- | --- | --- | --- | --- | --- |
| COc1cc(OC)c(-c2cn3ccc(NC(=O)CCN)cc3n2)cc1Cl [Example 168, 3-amino-N-[2-(5-chloro-2,4-dimethoxyphenyl)imidazo[1,2-a]pyridin-7-yl]-propanamide] | 39 µM | 0.0283 µM | 6.2 µM | 9.5 µM | 2.7 µM | 1.4 µM |
| COc1cc(OC)c(-c2cn3ccc(N4CCN(S(C)(=O)=O)CC4)cc3n2)cc1Cl [Example 169, 2-(5-chloro-2,4-dimethoxyphenyl)-7-[4-(methylsulfonyl)piperazin-1-yl]imidazo[1,2-a]pyridine] | 1.8 µM | 0.0101 µM | 2.2 µM | 2.8 µM | 4.7 µM | 2.1 µM |
| CCCS(=O)(=O)N1CCN(c2ccn3cc(-c4cc(Cl)c(OC)cc4OC)nc3c2)CC1 [Example 170, 2-(5-chloro-2,4-dimethoxyphenyl)-7-[4-(propylsulfonyl)piperazin-1-yl]imidazo[1,2-a]pyridine] | 1.7 µM | 0.0219 µM | 1.6 µM | 2.6 µM | 1.9 µM | 2.1 µM |
| COc1cc(OC)c(-c2cn3ccc(N4CCN(S(=O)(=O)N(C)C)CC4)cc3n2)cc1Cl [Example 171, 4-[2-(5-chloro-2,4-dimethoxyphenyl)imidazo[1,2-a]pyridin-7-yl]-N,N-dimethylpiperazine-1-sulfonamide] | 0.83 µM | 0.0135 µM | 2 µM | 0.84 µM | 1.2 µM | 0.94 µM |
| CCS(=O)(=O)N1CCN(c2ccn3cc(-c4cc(Cl)c(OC)cc4OC)nc3c2)CC1 [Example 172, 2-(5-chloro-2,4-dimethoxyphenyl)-7-[4-(ethylsulfonyl)piperazin-1-yl]imidazo[1,2-a]pyridine] | 1.9 µM | 0.0125 µM | 1.6 µM | 1.8 µM | 1.8 µM | 1.2 µM |
| CCS(=O)(=O)NC1CCN(c2ccn3cc(-c4cc(Cl)c(OC)cc4OC)nc3c2)CC1 [Example 173, N-{1-[2-(5-chloro-2,4-dimethoxyphenyl)imidazo[1,2-a]pyridin-7-yl]piperidin-4-yl}ethanesulfonamide] | 1.5 µM | 0.00961 µM | 1.6 µM | 0.99 µM | 0.53 µM | 1.9 µM |
| CCCS(=O)(=O)NC1CCN(c2ccn3cc(-c4cc(Cl)c(OC)cc4OC)nc3c2)CC1 [Example 174, N-{1-[2-(5-chloro-2,4-dimethoxyphenyl)imidazo[1,2-a]pyridin-7-yl]piperidin-4-yl}propane-1-sulfonamide] | 3 µM | 0.0104 µM | 2.3 µM | 2 µM | 1.7 µM | 1.8 µM |
| COc1cc(OC)c(-c2cn3ccc(N4CCC(NS(=O)(=O)Cc5ccccc5)CC4)cc3n2)cc1Cl [Example 175, N-{1-[2-(5-chloro-2,4-dimethoxyphenyl)imidazo[1,2-a]pyridin-7-yl]piperidin-4-yl}-1-phenylmethanesulfonamide] | 2 µM | 0.0263 µM | 1.8 µM | 2 µM | 1.9 µM | 1.5 µM |
| COc1cc(OC)c(-c2cn3ccc(N4CCC(NS(=O)(=O)C(F)(F)F)CC4)cc3n2)cc1Cl [Example 176, N-{1-[2-(5-chloro-2,4-dimethoxyphenyl)imidazo[1,2-a]pyridin-7-yl]piperidin-4-yl}-1,1,1-trifluoromethanesulfonamide] | 0.51 µM | 0.0641 µM | 0.75 µM | 0.53 µM | 0.36 µM | 0.55 µM |
| COc1cc(OC)c(-c2cn3ccc(N4CCN(S(C)(=O)=O)CC4)nc3n2)cc1Cl [Example 177, 2-(5-chloro-2,4-dimethoxyphenyl)-7-(4-(methylsulfonyl)piperazin-1-yl)-imidazo[1,2-a]pyrimidine] | 3.8 µM | 0.0408 µM | 2.5 µM | 11 µM | 8 µM | 6 µM |
| COc1cc(OC)c(-c2cn3ccc(N4CCN(S(=O)(=O)C(C)C)CC4)cc3n2)cc1Cl [Example 178, 2-(5-chloro-2,4-dimethoxyphenyl)-7-[4-(isopropylsulfonyl)piperazin-1-yl]imidazo[1,2-a]pyridine] | 1 µM | 0.0143 µM | 0.74 µM | 2.1 µM | 1.7 µM | 1.5 µM |
| COc1cc(OC)c(-c2cn3ccc(N4CCN(S(=O)(=O)Cc5ccccc5)CC4)cc3n2)cc1Cl [Example 179, 7-[4-(benzylsulfonyl)piperazin-1-yl]-2-(5-chloro-2,4-dimethoxyphenyl)-imidazo[1,2-a]pyridine] | 2.1 µM | 0.0322 µM | 1.6 µM | 1.8 µM | 1.8 µM | 1.6 µM |
| COc1cc(OC)c(-c2cn3ccc(N4CCN(S(=O)(=O)N(C)C)CC4)nc3n2)cc1Cl [Example 180, 4-[2-(5-chloro-2,4-dimethoxyphenyl)imidazo[1,2-a]pyrimidin-7-yl]-N,N-dimethylpiperazine-1-sulfonamide] | 1.1 µM | 0.0241 µM | 1.6 µM | 2.6 µM | 1.7 µM | 1.5 µM |
| COc1cc(OC)c(-c2cn3ccc(N4CCC(NS(=O)(=O)N(C)C)CC4)cc3n2)cc1Cl [Example 181, N-{1-[2-(5-Chloro-2,4-dimethoxyphenyl)imidazo[1,2-a]pyridin-7-yl]piperidin-4-yl}N,N-dimethylsulfonamide] | 0.76 µM | 0.0139 µM | 1.5 µM | 0.38 µM | 0.35 µM | 1.6 µM |
| COc1cc(OC)c(-c2cn3ccc(N4CCC(N5CCCS5(=O)=O)CC4)cc3n2)cc1Cl [Example 182, 2-{1-[2-(5-chloro-2,4-dimethoxyphenyl)imidazo[1,2-a]pyridin-7-yl]piperidin-4-yl}isothiazolidine 1,1-dioxide] | 1.7 µM | 0.00697 µM | 1.5 µM | 2.6 µM | 1.8 µM | 1.9 µM |
| COC(=O)Nc1ccn2cc(-c3cc(Cl)c(OC)cc3OC)nc2c1 [Example 183, methyl [2-(5-chloro-2,4-dimethoxyphenyl)imidazo[1,2-a]pyridin-7-yl]-carbamate] | 1.8 µM | 0.0241 µM | 1.9 µM | 1.8 µM | 2 µM | 2.1 µM |
| COc1cc(OC)c(-c2cn3ccc(N4CCCN(C(=O)OC(C)(C)C)CC4)cc3n2)cc1Cl [Example 184, tert-butyl 4-[2-(5-chloro-2,4-dimethoxyphenyl)imidazo[1,2-a]pyridin-7-yl]-1,4-diazepane-1-carboxylate] | 3.8 µM | 0.0285 µM | 2.5 µM | 4.9 µM | 2.2 µM | 5.7 µM |
| COc1cc(OC)c(-c2cn3ccc(N4CCC(NS(=O)(=O)CC(C)C)CC4)cc3n2)cc1Cl [Example 185, N-{1-[2-(5-Chloro-2,4-dimethoxyphenyl)imidazo[1,2-a]pyridin-7-yl]piperidin-4-yl}-2-methylpropane-1-sulfonamide] | 1.6 µM | 0.0127 µM | 1.4 µM | 1.9 µM | 2 µM | 1.1 µM |
| COc1cc(OCCCN(C)C)c(-c2cn3ccc(N4CCNCC4)nc3n2)cc1Cl [Example 186, 3-(4-chloro-5-methoxy-2-(7-(piperazin-1-yl)imidazo[1,2-a]pyrimidin-2-yl)phenoxy)-N,N-dimethylpropan-1-amine] | 22 µM | 0.0619 µM | 12 µM | 35 µM | 7.3 µM | 17 µM |
| COc1cc(OC)c(-c2cn3ccc(N4CCCN(S(=O)(=O)C5CC5)CC4)cc3n2)cc1Cl [Example 187, 2-(5-chloro-2,4-dimethoxyphenyl)-7-[4-(cyclopropylsulfonyl)-1,4-diazepan-1-yl]imidazo[1,2-a]pyridine] | 2.1 µM | 0.00574 µM | 1.4 µM | 5 µM | 2.1 µM | 1.9 µM |
| COc1cc(OC)c(-c2cn3ccc(N4CCCN(S(=O)(=O)C(F)(F)F)CC4)cc3n2)cc1Cl [Example 188, 2-(5-chloro-2,4-dimethoxyphenyl)-7-{4-[(trifluoromethyl)sulfonyl]-1,4-diazepan-1-yl}imidazo[1,2-a]pyridine] | 1.6 µM | 0.0369 µM | 1.6 µM | 1.4 µM | 1.5 µM | 1.6 µM |
| COc1cc(OC)c(-c2cn3ccc(N4CCCNCC4)cc3n2)cc1Cl [Example 189, 2-(5-chloro-2,4-dimethoxyphenyl)-7-(1,4-diazepan-1-yl)imidazo[1,2-a]pyridine] | 3.5 µM | 0.00433 µM | 2.9 µM | 6.3 µM | 2 µM | 3 µM |
| CCS(=O)(=O)N1CCN(c2ccn3cc(-c4cc(Cl)c(OC)cc4OC)nc3n2)CC1 [Example 190, 2-(5-chloro-2,4-dimethoxyphenyl)-7-[4-(ethylsulfonyl)piperazin-1-yl]imidazo[1,2-a]pyrimidine] | 1.8 µM | 0.0306 µM | 1 µM | 4.5 µM | 2.7 µM | 2.3 µM |

From US10508109B2 (priority 2015, dated 2019)
